Test results reported in paper PMC7217877, “N-AS-triggered SPMs are direct regulators of microglia in a model of Alzheimer’s disease” (Nature Communications, 2020).
Values joined by “and” are separate entries in the source; they are usually repeats but may differ in a detail not shown here. Equal values may be shown once.

Legend:
APP/PS1 mice [1] = experiment: flow cytometry of blood immune cells (Supplementary Fig 5e-i); type: in vivo, mouse; parameters: CD11b+ CD115+ Ly6Chi / CD11b+ CD115+ Ly6Clow / CD115low Ly6Chi Ly6Ghi / CD4+ T cell / B220+ B cell: unit not given here
Procedure: (§1) Transgenic mouse lines over-expressing the hAPP695swe (APP) and presenilin-1M146V (PS1) mutations were originated from GlaxoSmithKline (Harlow, UK)[32] and maintained as described previously. We purchased 5×FAD mice from Jackson Labs (Stock number. 34840-JAX). Because APP/PS1 and 5xFAD mice show sex differences in disease progression, we used only male mice. To examine possible therapeutic effect of N-AS and aspirin in APP/PS1 mice, the N-AS (30 mg kg^−1, Sigma-Aldrich, 01912) was injected daily s.c. for 8 weeks to 7-months-old APP/PS1 mice until the age of 9 months, and aspirin (2 mg kg^−1, Sigma-Aldrich, A5376)[33] was administrated orally to 7-months-old APP/PS1 mice for 8 weeks. Also, to confirm possible therapeutic efficacy of N-AS in 5×FAD, the N-AS (30 mg kg^−1, Sigma-Aldrich, 01912) was injected daily s.c. for 4 weeks to 3-months-old 5×FAD mice until the age of 4 months. Block randomization method was used to allocate the animals to experimental groups. To eliminate the bias, we were blinded in experimental progress such as data collection and data analysis. Mice were housed at temperature of 22 °C and a 12 h day/12 h night cycle with free access to tap water and food pellets. All protocols were approved by the Kyungpook National University Institutional Animal Care and Use Committee.
Brain microglia polarity and immune cells in brain and blood were analyzed by flow cytometry. Cells from WT, APP/PS1, and APP/PS1 treated with N-AS mice brain were prepared as previously described with minor modifications. Brains of WT, APP/PS1, and APP/PS1 treated with N-AS mice were dissected and immediately transferred in ice-cold HBSS (Gibco). After gentle mincing, the brain was digested in a HBSS solution containing collagenase P (0.2 mg ml^−1, Roche), dispase II (0.8 mg ml^−1, Roche), DNase I (0.01 mg ml^−1, Roche), and collagenase A (0.3 mg ml^−1, Roche) at 37 °C for 1 h under gentle rocking. Digestion was stopped by adding FBS (Gibco) on ice. The supernatants were centrifuged at 250×g for 10 min at 4 °C. The pellet was resuspended in 25% BSA (Gibco)/PBS (Gibco) for myelin removal. Following a centrifugation step at 3000×g for 30 min at 4 °C, the myelin containing supernatant was discarded. The cell pellets were then resuspended in 1 ml of HBSS and filtered through a 40 μm mesh, followed by a washing step in HBSS. The cell pellets were resuspended in 1 ml of red blood cell lysis buffer (BD Biosciences) and incubated at RT for 10 min for lysis of erythrocytes. Subsequently, 2 ml of MACs buffer (Miltenyl Biotec, 130-091-222) was added and centrifuged at 250×g for 10 min at 4 °C. Cells from WT, APP/PS1, and APP/PS1 treated with N-AS mice blood were prepared as previously described with minor modifications. Blood was collected in sodium-heparin tube (BD, 367871) by cardiac puncture. Red blood cells were lysed once at 4 °C for 10 min in 0.15 M NH4Cl ([…] Technologies), washed once with PBS (Gibco), and counted using cell counter (Logos biosystems). […]

APP/PS1 mice [2] = experiment: light-dark test (Supplementary Fig 7j-n); type: in vivo, mouse; conditions: N-AS vs APP/PS1
Procedure: as §1, with “Also, to confirm possible therapeutic efficacy of N-AS in 5×FAD, the N-AS (30 mg kg^−1, Sigma-Aldrich, 01912) was injected daily s.c. for 4 weeks to 3-months-old 5×FAD mice until the age of 4 months.” left out, “Committee. […] Freezing was analyzed for 5 min. […] Overall activity in the box was measured, and the amount of time and distance traveled in the center arena was noted. […] The total number of transitions, latency to first enter the light chamber, distance traveled, and time spent in each chamber were recorded.” for “Committee.”

## CCCCCCCCCCCCC/C=C/[C@@H](O)[C@H](CO)NC(C)=O [N-AS, N-((2S,3R,E)-1,3-Dihydroxyoctadec-4-en-2-yl)acetamide]
APP/PS1 mice [1]; N-AS vs vehicle APP/PS1
  anti-inflammatory monocytes in blood: increased anti-inflammatory monocytes
  macrophages and pro-inflammatory monocytes in blood: decreased macrophages and pro-inflammatory monocytes
  neutrophils in blood: neutrophils showed no differences between the groups
APP/PS1 mice [1]; blood, APP/PS1 + N-AS, sFig 5e
  Lin- CD11b+ F4/80hi: 0.31 and 0.35 and 0.29 and 0.33 and 0.3
APP/PS1 mice [1]; blood, APP/PS1 + N-AS, sFig 5f
  CD11b+ CD115+ Ly6Chi: 0.3325 and 0.21 and 0.4 and 0.265 and 0.235 and 0.305
  CD11b+ CD115+ Ly6Clow: 0.32 and 0.295 and 0.285 and 0.3075
APP/PS1 mice [1]; blood, APP/PS1 + N-AS, sFig 5g
  CD115low Ly6Chi Ly6Ghi: 3.9 and 4.5 and 3.15 and 4.65 and 3 and 4.1
APP/PS1 mice [1]; blood, APP/PS1 + N-AS, sFig 5i
  B220+ B cell: 5.915 and 5.6 and 6.23 and 6.0725
APP/PS1 mice [1]; blood, APP/PS1 + N-AS, sFig 5h
  CD4+ T cell: 3.42 and 3.21 and 3.63 and 3.525
APP/PS1 mice [2]
  light–dark test: did not differ between the groups
